Measured values published in US4748177A, “Guanine derivatives” (Warner-Lambert Company, priority 1985, dated 1988).

System: T-cells
Assay: standard test of selective cytotoxicity for T-cells in the presence of 2'-deoxyguanosine
Format: cell-based
Details: in the presence of 10 μM of 2'-deoxyguanosine
Experimental: […] activity was measured radiochemically by measuring the formation of [^14 -C]-hypoxanthine from [^14 -C]-inosine [Biomedicine, 33, 39 (1980)] using human erythrocyte as the enzyme source. The same compounds also were found by a standard test [Science, 214, 1137, (1981)] to be selectively cytotoxic for T-cells in the presence of 2'-deoxyguanosine at a similar concentration range. For example, 8-amino-9-[(4-methylphenyl)methyl]guanine is selectively cytotoxic to T-cells at a concentration of about 3.1 μM in the presence of 10 μM of 2'-deoxyguanosine. Similarly, 8-amino-9-[(4-methoxyphenyl)methyl]guanine is selectively cytotoxic to T-cells at concentration of about 1.1 μM in the presence of 10 μM of 2'-deoxyguanosine. On the other hand, these compounds were nontoxic to B-cells in the presence or absence of the same amount of 2'-deoxyguanosine. Since T-cells play a central role in immune response, use of the compounds of the invention is contemplated for the immunoregulation of rejection in transplantation and autoimmune disease such as rheumatoid arthritis, systemic lupus erythematosus, inflammatory bowel disease, cancer, juvenile diabetes, myasthenia gravis, multiple sclerosis, and viral diseases. […]

SMILES: COc1ccc(Cn2c(N)nc3c(=O)[nH]c(N)nc32)cc1 [8-amino-9-[(4-methoxyphenyl)methyl]guanine]
- concentration at which selectively cytotoxic to T-cells: about 1.1 μM

SMILES: Cc1ccc(Cn2c(N)nc3c(=O)[nH]c(N)nc32)cc1 [8-amino-9-[(4-methylphenyl)methyl]guanine]
- concentration at which selectively cytotoxic to T-cells: about 3.1 μM
